| Compound | melting point |
| --- | --- |
| COc1ccc(COCc2nc(C(C)C)c(Sc3cc(Cl)cc(Cl)c3)[nH]2)cc1 | 96 to 97 °C |
| CN1Cc2c(-c3noc(CN4CCCC4)n3)ncn2-c2ccc(F)cc2C1=O | 158 to 160 °C |
| CCCCCCCCCCCCCCc1ccc(OCC(CO)OCc2ccccc2)c(CCCCCC)c1 (configuration not stated) | 32 to 33 °C |
| O=C(Cl)c1ccc(C#Cc2ccccc2F)o1 | 96 to 98 °C |
| CCC=Cc1nc2ccccc2n1Cc1ccc(C(=O)O)cc1 | 210 °C |
| CNC(=O)c1cc(F)cc(Cl)c1Oc1cccc(OC)c1C | 127 to 128 °C |
| CC(C)(C)OC(=O)NC(Cc1c[nH]cn1)C(=O)N1CCCC1C(N)=O (configuration not stated) | 97 to 101 °C |
| COc1ccc(S(=O)(=O)Nc2cccnc2Nc2ccc(C(=O)O)cc2)cc1 | 248 to 250 °C |
| CC(=O)N(c1cccc(C(F)(F)F)c1)c1cccc(C(F)(F)F)c1 | 73 to 74 °C |
| NS(=O)(=O)c1ccc(CCN2C(=O)c3ccccc3C2(O)c2ccccc2)cc1 (configuration not stated) | 225 °C |
| CCc1cccc2c3c([nH]c12)C(CC)(CCF)OCC3 (configuration not stated) | 118 to 119 °C |
| CCCCCCCCNC(=O)[C@@H]1C[C@H]1c1ccc(NC(=O)/C=C\C(=O)O)cc1 (relative stereo) | 178 to 180 °C |
| CN(C)CCNC(=O)N1CCC(Oc2ccccc2)C1 (configuration not stated) | 72 to 73 °C |
| CCCCCCNC1=NS(=O)(=O)c2ccc(Cl)cc2N1 | 244 to 247 °C |
| CC(=O)OCc1ccc(C=O)cc1 | 32 °C |
| CC(C)c1nc(CCOC(N)=O)n(Cc2ccccc2N)c1Sc1cc(Cl)cc(Cl)c1 | 167 to 170 °C |
| CC(C)Nc1cccnc1N1CCN(C(=O)c2ccc(C(=O)N[C@H](C)CO)cn2)CC1 | 129 to 130 °C |
| COC(=O)c1oc2c(OC)cccc2c1O | 114 °C |
| O=C(c1ccc(CBr)cc1)c1ccc(CBr)cc1 | 118 to 119 °C |
| CN(C)CCCN(C(=O)Cc1ccccc1)c1ccccc1SCc1ccc(Cl)cc1 | 92 to 94 °C |
| N#Cc1c(-c2ccc(Cl)cc2)[nH]c(SC(F)(F)F)c1Br | 241 to 243 °C |
| CCC(=O)N(C(=O)CC)c1nc2c(c(-c3ccccc3)cn2C)c(=O)n1C | 215 to 217 °C |
| CCCCc1c(F)c(F)c(NN)c(F)c1F | 80 to 81 °C |
| CNc1nc(-c2cccc(NC(=O)c3cccc(OC)c3)c2)c2cc(OC)c(OC)cc2n1 | 193 to 195 °C |

| Compound | melting point |
| --- | --- |
| O=S(=O)(Nc1ccc(Oc2ccc3ncccc3c2)cc1)c1cccc(C(F)(F)F)c1 | 142 to 143 °C |
| COC(=O)c1ccc(CN2CCOc3ccc([N+](=O)[O-])cc32)c(OC)c1 | 130 to 132 °C |
| NS(=O)(=O)c1cc2c(cc1Cl)C(=O)N(Cc1cccnc1)C2=O | 210 to 212 °C |
| N#CCc1ccccc1O | 118 °C |
| CCc1cc(C)c2c(-c3cccc(Cl)c3)cc(=S)n(C)c2n1 | 131 to 133 °C |
| CNC(=O)N1C(=S)C2(CCCCC2)NC12CCCCC2 | 127 to 129 °C |
| O=C(Nc1ccccc1)C1=C(Nc2ccc(Cl)cc2)COC1=O | 209 to 210 °C |
| Sc1nncn1C1CCCCC1 | 162 to 165 °C |
| CC(=O)N(CCCC(=O)O)c1ccccc1-c1ccccc1 | 124 to 125 °C |
| O=C(O)CCCCCc1ccc(O)c(O)c1 | 109 °C |
| COC(=O)Cc1cccc(OC)c1OCCCc1cn(-c2ccc([N+](=O)[O-])cn2)nc1C(C)C | 108 to 109 °C |
| OC(CN1CCCC1)c1cc(C(F)(F)F)nc2c(C(F)(F)F)cccc12 (configuration not stated) | 92 to 94 °C |
| CN(C)C(=O)C(O)(C(=O)O)c1ccc(Cl)c(Cl)c1 (configuration not stated) | 158 to 160 °C |
| CCOC(=O)COc1cc2cc(C(O)CC)sc2c(Cl)c1Cl (configuration not stated) | 69 to 70 °C |
| OCc1sc2cc(Br)ccc2c1Cl | 117 to 118 °C |
| O=C(NCCSCc1ccccc1)c1c(Cl)cccc1Cl | 96 to 97 °C |
| Cc1ccc(OCC(O)CNC(C)C)c([N+](=O)[O-])c1[N+](=O)[O-] (configuration not stated) | 122 to 124 °C |
| COc1cc2c(c(OC)c1OC)C=C(C=CC(=O)N1CCC(C3CCN(C(=O)C=CC4=Cc5c(cc(OC)c(OC)c5OC)CC4)CC3)CC1)CC2 | 253 to 256 °C |
| Cc1cc2c(cc1C#Cc1ccccc1)NC(=O)CC(c1cccc(-c3nccn3C)c1)=N2 | 202 to 205 °C |
| CN(CCOc1ccc(C=C2SC(=O)NC2=O)cc1)c1ncccn1 | 189 to 190 °C |
| CC(C)c1nc(-c2ccccc2Cc2ccccc2)cc(-c2ccc(F)cc2)c1CO | 122 to 124 °C |
| CCc1ccc2cc(C3(Cn4ccnc4)OCCO3)ccc2c1 | 251 °C |
| CCCCCCCCCCCCn1c2nc(=O)[nH]c(=O)c-2nc2cc(C)c(C)cc21 | 223 to 224 °C |
| CN(C)CC1CN(c2c(F)cc3c(=O)c(C(=O)O)cn(C4CC4)c3c2F)CCO1 (configuration not stated) | 182 to 183 °C |

| Compound | melting point |
| --- | --- |
| O=C(O)c1cn(-c2ccnc3ccccc23)c2ccc(F)cc12 | 148 °C |
| CCCC(NS(=O)(=O)c1ccc(NC(C)=O)cc1)P(=O)(Oc1ccccc1)Oc1ccccc1 (configuration not stated) | 183 to 186 °C |
| O=C(O)Cc1c(C(=O)c2ccc(Br)cc2)[nH]c2cc(Cl)ccc12 | 199 to 201 °C |
| O=CN(O)C(CS(=O)(=O)c1ccccc1Oc1ccc(OC(F)(F)F)cc1)C(CO)CO (configuration not stated) | 129 to 131 °C |
| O=C(Nc1ccc(Br)c(C(F)(F)F)c1)c1ccccc1[N+](=O)[O-] | 157 to 158 °C |
| CN(Cc1ccccc1)S(=O)(=O)CC#N | 68 to 70 °C |
| Cn1cc(-c2cc(Cl)cc(Cl)c2)c(=O)c(-c2cccc(C(F)(F)F)c2)c1 | 156 to 160 °C |
| Cc1nnc2n1-c1ccc(C#CCN3C(=O)CN(C)C(=O)c4ccccc43)cc1C(c1ccccc1F)=NC2 | 179 to 182 °C |
| CCOC(=O)/C=C/c1cnn(C)c1-c1cccnc1 | 159 to 160 °C |
| CCCOc1ccc(-c2cncn2-c2ccc(S(C)(=O)=O)cc2)cc1 | 167 to 169 °C |
| COc1c(C)cc2c(c1C)C(C)(C)CN2C(=O)C(C)(C)C | 103 to 104 °C |
| CN1CCC(c2c[nH]c3cc(NC(=N)c4cccs4)ccc23)C1 (configuration not stated) | 89 to 91 °C |
| COc1ccc(C2CC3(C)C(CC45OCCOC43OCCO5)C3CC(C)C4(O)CCCCC4C23)cc1 (configuration not stated) | 168 to 169 °C |
| O=C(Nc1ccc(Cl)cc1)N[C@H]1C[C@H](C(=O)O)Nc2cc(Cl)cc(Cl)c21 (relative stereo) | 199 to 200 °C |
| CN1CCCNC(=O)C1 | 91 °C |
| CCOC(=O)COc1ccc2c(C)c(CCN(CC)CC)c(=O)oc2c1Br | 150 to 151 °C |
| CCCCCS(=O)(=O)NC(=O)/C=C/c1ccc(OCCC2(C)OCCO2)cc1Oc1ncc(C(F)(F)F)cc1Cl | 90 to 92 °C |
| CC(C)Cc1cc(=O)c2cc(OCCCCCN3CCC(O)CC3)ccc2o1 | 98 to 99 °C |
| CC(=O)CSc1nc2ccccc2cc1-c1ccccc1 | 88 to 90 °C |
| Cn1c(CNCC2CCOCC2)cc2cc(NC(=O)c3ccc(OCC4CCOC4)cc3)ccc21 (configuration not stated) | 153 to 154 °C |
| Cc1ccc(-c2ccc(Cl)c(C(=O)O)n2)cc1C(=O)NCC1CCCCCC1 | 177 to 178 °C |
| O=C1NCc2c1ccc(Nc1ccccc1)c2Nc1ccccc1 | 225 °C |
| O=C(O)CCCCCN1C(=O)c2cccc([N+](=O)[O-])c2C1=O | 144 °C |
| Sc1nccn1Cc1ccsc1 | 130 to 131 °C |
